Data as given in patent US4632922A, “Oxomorpholinyl dimer and rescue of anthracycline and mitomycin C damage” (The United States of America as represented by the …, priority 1985, dated 1986).

What was measured:
[1] = Kinetics of reaction of DHM3 with daunorubicin in water solvent
Experimental: A test similar to that described for the same reaction in methanol solvent (vide supra) was run. Oxomorpholinyl dimer DHM3 (1.38 mg, 4.37×10^-3 mmol) was dissolved in 0.5 ml of oxygen-free methanol and quickly transferred without delay into one compartment of the cell. The solvent was promptly removed under vacuum. Daunorubicin hydrochloride ([…]) was dissolved in 100 ml of an aqueous solution of Tris (24.2 mg) and Tris hydrochloride (31.6 mg) and 2.6 ml of this solution (4.18×10^-4 mmol of 6) was introduced into the other compartment of the cell. The sample was freeze-thaw degassed over three cycles as described above, sealed, and placed in a thermostatted cell holder at 10.0±0.1° C. for about 20 min prior to mixing. Full spectra between 320 and 800 nm were recorded every 10 sec for the first 125 sec, and then every 20 sec. From the absorbance change at 620 nm over the first 85 sec (50% reaction of daunorubicin), a non-linear least-squares treatment gave a first order rate constant for bond homolysis of DHM3 (k1) equal to 6×10^-4 sec^-1 and a first order rate constant for destruction of 7 (k2) equal to 2×10^-2 sec^-1. Treatment of the data obtained in the 164-225 sec interval gave k2 =2.8×10^-2 sec^-1.
Thus, when a ten-fold excess of DHM3 is reacted with an oxygen-free 2×10^-4 M solution of 6 in buffered water (pH8) at 10° C., the absorbance of the solution at 618-620 nm, due to the tautomer 7, reaches its maximum after 125 sec and then decreases quickly, with an 80% decrease in 100 sec. Here again the formation and destruction of 7, as calculated from the data obtained in the first 85 sec of reaction, follows consecutive first order kinetics, first order in DHM3 and 7, with k1 =6×10^-4 sec^-1, k2 =2×10^-2 sec^-1 and ε7 =9600. Calculation of k2 from the absorbance data taken after 165 sec of reaction time, when only first order destruction of 7 is observed, gives a value of 2.8×10^-2 sec^-1.

[2] = tested on: DOX-induced skin ulceration; experiment: Rescue by DHM3 of DOX-induced skin necrosis (ulceration, induration) in swine; type: in vivo, miniature white swine
Experimental: (§1) In order to produce anthracycline induced tissue damage, clinical grade doxorubicin (DOX) hydrochloride was obtained as a representative anthracycline chemical from the Drug Synthesis Branch, Developmental Therapeutics Program, National Cancer Institute. Each vial contained 10 mg DOX hydrochloride and 50 mg lactose which was reconstituted with 5.0 ml sterile 0.9% NaCl solution to give a final drug concentration of 2.0 mg/ml. DHM3 solution was prepared by dissolving 10 mg in ice-cold water which had been purged with N2 gas for 5 minutes. Dissolution was facilitated by brief sonication to give a final concentration of 10 mg/ml. The solution was kept cold (≈4° C.) and protected from air and light.
(§2) Female weanling miniature white swine weighing approximately 12 kg were obtained from the Veterinary Resources Branch, National Institutes of Health. The development of this strain of swine has been described previously (Sachs, et al., Transplantation 22:559-567, 1976). Each animal was housed in a 6×4 ft metabolic cage and was fed standard NIH show chow, 1.5 lbs twice daily.
Each animal was anesthesized by intramuscular injections of ketamine, 20 mg/kg, xylazine, 20 mg/kg, and atropine, 1.0 mg. Following endotracheal intubation anesthesia was maintained with a mixture of nitrous oxide, halothane, and oxygen gas.
(§3) DOX HCl (2.0 mg/ml) was administered intradermally (i.d.) with a 25 gauge needle inserted approximately 4 to 5 mm into the skin. Following the injection of 0.5, 0.75 or 1.0 ml (1.0, 1.5, or 2.0 mg, respectively) DOX solution, the syringe was removed from the hub leaving the needle in place. After the indicated time interval, 1.0 ml (10 mg) DHM3 was injected through the same needle and the needle was then removed. Control sites received 1.0 ml sterile water instead of DHM3. The injection sites were along the mid-lateral aspect of each side of the swine and were 4-5 cm apart (6-8 injection sites per side). One animal was used for a dose experiment where DOX, 0.5 ml/site was injected along one side and 1.0 ml/site was injected along the contralateral side. Fifteen minutes later, DHM3 or water was injected into alternating sites as described above. A second animal received DOX, 0.75 ml/site along both sides. DHM3 or water was injected into alternating sites at times varying from 5 to 120 minutes following DOX administration.
(§4) All lesions were measured by a single observer with metric calipers three times weekly for two weeks, followed by weekly measurements thereafter. The areas of skin ulceration and induration were estimated by the product of the cross perpendicular diameters. The total toxicity of DOX-induced skin ulceration was determined by calculating the area under the ulceration-time curve (AUC) in mm^2 -days.
In order to assess the extent of tissue injury following intradermal DOX or DHM3, incisional biopsies were performed on representative lesions 6 and 20 days following drug injection. These samples were placed in 10% buffered formalin and processed for examination by standard light microscopy (Pathco Inc., Potomac, MD.).

[3] = tested on: drug-induced skin necrosis; experiment: Protection by DHM3 against drug-induced skin necrosis in the swine model; type: in vivo; settings: for Percent Reduction of Maximal Ulcer Size: DHM3 15 min later
Experimental: as §3
In a separate study, equimolar amounts of several compounds used in experimental or clinical cancer chemotherapy were injected into pig skin using the same method described above. Paired injection sites were treated 15 minutes later with either H2 O or DHM3 in duplicate.
as §4

swine skin = experiment: Intradermal DHM3 alone (control injections), tolerance and histology in swine; type: in vivo, miniature white swine
Experimental: as §1, §2
as §3, with “DHM3 or water was injected into alternating sites at times varying from 5 to 120 minutes following DOX administration.” left out

[4] = DHM3 10 mg 15 min after DOX 2.0 mg i.d.

In the case of CC1(CO)COC(=O)C(C)(C2(C)NC(C)(CO)COC2=O)N1 (stereo not shown) [DHM3, bi(3,5-dimethyl-5-hydroxymethyl-2-oxomorpholin-3-yl)], the “reactivity with daunorubicin compared with TM-3” value ([1]; DHM3 in water vs TM-3 in methanol) is reported as “approximately the same reactivity”, the “first order rate constant for bond homolysis of DHM3 (k1)” value ([1]; buffered water (pH8), 10.0±0.1° C., first 85 sec) is reported as 0.0006 s⁻¹ and the “extent of skin necrosis” value [2, 4] is reported as “greatly reduced”. The “reduction of peak area size of the ulcer” value [2, 4] was 80%, the “time to complete healing” value ([2]; DHM3 10 mg 15 min after DOX 2.0 mg, control 7 weeks) was no more than 5 weeks and the “AUC (total toxicity of skin ulceration)” value ([2]; DHM3 10 mg i.d. 5 min after DOX 1.5 mg i.d.) was 960 mm^2 . days. For the same compound, the “AUC (total toxicity of skin ulceration)” value ([2]; DHM3 10 mg i.d. 15 min after DOX 1.0 mg i.d., mean of 3 lesions, p < .005) was 840 ± 420 mm^2 . days, the “AUC (total toxicity of skin ulceration)” value ([2]; DHM3 10 mg i.d. 15 min after DOX 1.5 mg i.d.) was 2220 mm^2 . days and the “AUC (total toxicity of skin ulceration)” value ([2]; DHM3 10 mg i.d. 15 min after DOX 2.0 mg i.d., mean of 3 lesions, p < .001) was 1020 ± 420 mm^2 . days. For the same compound, the “AUC (total toxicity of skin ulceration)” value ([2]; DHM3 10 mg i.d. 30 min after DOX 1.5 mg i.d.) was 3240 mm^2 . days, the “AUC (total toxicity of skin ulceration)” value ([2]; DHM3 10 mg i.d. 60 min after DOX 1.5 mg i.d.) was 4020 mm^2 . days and the “AUC (total toxicity of skin ulceration)” value ([2]; DHM3 10 mg i.d. 90 min after DOX 1.5 mg i.d.) was 5340 mm^2 . days. For the same compound, the “AUC (total toxicity of skin ulceration)” value ([2]; DHM3 10 mg i.d. 120 min after DOX 1.5 mg i.d.) was 8400 mm^2 . days, the “protection against DOX injury” value ([2]; DHM3 5 min after DOX) was “Optimal protection” and the “reduction of the size of surrounding induration” value ([2]; DHM3 after DOX) was “observed to parallel the ulcer measurements”. The “color change of stained skin” value ([2]; DHM3 injected into DOX site) was “immediately changed to a rusty brown”, the “reduction of DOX induced injury” value ([2]; DOX 1.0 mg, compared with 2.0 mg) was “similar” and the “protection against DOX injury” value ([2]; interval greater than 60 min) was “no protection is observed”. For the same compound, the “protection against DOX injury” value ([2]; interval increased to 60 min) was “Progressively less protection”, the “protection from skin necrosis (maximal ulcer area and time required for healing)” value ([2]; up to 60 min after i.d. DOX) was “considerable protection” and the “Percent Reduction of Maximal Ulcer Size” value ([3]; against 4'-Epidoxorubicin, Exper. 4) was 51%. For the same compound, the “Percent Reduction of Maximal Ulcer Size” value ([3]; against 4-Demethoxydaunorubicin, Exper. 4) was 79%, the “Percent Reduction of Maximal Ulcer Size” value ([3]; against 5-Iminodaunorubicin, Exper. 3) was 53% and the “Percent Reduction of Maximal Ulcer Size” value ([3]; against Aclarubicin, Exper. 4) was 46%. For the same compound, the “Percent Reduction of Maximal Ulcer Size” value ([3]; against Adriamycin, Exper. 1) was 77%, the “Percent Reduction of Maximal Ulcer Size” value ([3]; against Adriamycin, Exper. 2) was 40% and the “Percent Reduction of Maximal Ulcer Size” value ([3]; against Daunorubicin, Exper. 2) was 39%. The “Percent Reduction of Maximal Ulcer Size” value ([3]; against Menogaril, Exper. 4) was 61%, the “Percent Reduction of Maximal Ulcer Size” value ([3]; against Mitomycin C, Exper. 3) was 58% and the “protection against drug-induced skin necrosis” value ([3]; against Mitoxantrone) was “no protection observed”. The “protection against drug-induced skin necrosis” value ([3]; against Vinblastine) was “no protection observed”, the “protection against drug-induced skin necrosis” value ([3]; against Vincristine) was “no protection observed” and the “protection against tissue necrosis” value ([3]; several anthracycline analogs and mitomycin C) was “effective in all cases”. The “protection against skin injury” value ([3]; vinca alkaloid and mitoxantrone) was “did not protect”, the “tissue injury (histology)” value (swine skin) was “did not cause any tissue injury except for mild upper dermis congestion” and the “tolerance of control i.d. injections” value (swine skin) was “well tolerated”. For the same compound, the ulcer formation (swine skin) was “no ulcer formation occurred”.
